Source: US10093630B2, “Pyrazole compounds and methods of making and using same” (ABIDE THERAPEUTICS, INC., priority 2014, dated 2018)
Read-outs that look alike come from different tables or passages of the source.

How the values were obtained:
Assay in all cases: In vitro competitive activity-based protein profiling (gel-based, FP-Rh or HT-01 probe)
Assay type in all cases: biochemical
FAAH = target: T1, FAAH (Mus musculus, UniProt O08914); conditions: for inhibition at 1 µM: 1 μM inhibitor, read-out: % Inhibition at 1 μM, B = FAAH; for inhibition at 10 µM: 10 μM inhibitor, read-out: % Inhibition at 10 μM, B = FAAH; for IC50: mouse brain membrane fraction or cell lysates, 30 min preincubation at 37° C., read-out: Mouse (IC50 value, nM) FAAH
T1 construct: Proteomes (mouse brain membrane fraction or cell lysates); from tissue; host or cells: mouse brain membrane fraction (or cell lysates, not specified)
T1 sequence (O08914 1-579): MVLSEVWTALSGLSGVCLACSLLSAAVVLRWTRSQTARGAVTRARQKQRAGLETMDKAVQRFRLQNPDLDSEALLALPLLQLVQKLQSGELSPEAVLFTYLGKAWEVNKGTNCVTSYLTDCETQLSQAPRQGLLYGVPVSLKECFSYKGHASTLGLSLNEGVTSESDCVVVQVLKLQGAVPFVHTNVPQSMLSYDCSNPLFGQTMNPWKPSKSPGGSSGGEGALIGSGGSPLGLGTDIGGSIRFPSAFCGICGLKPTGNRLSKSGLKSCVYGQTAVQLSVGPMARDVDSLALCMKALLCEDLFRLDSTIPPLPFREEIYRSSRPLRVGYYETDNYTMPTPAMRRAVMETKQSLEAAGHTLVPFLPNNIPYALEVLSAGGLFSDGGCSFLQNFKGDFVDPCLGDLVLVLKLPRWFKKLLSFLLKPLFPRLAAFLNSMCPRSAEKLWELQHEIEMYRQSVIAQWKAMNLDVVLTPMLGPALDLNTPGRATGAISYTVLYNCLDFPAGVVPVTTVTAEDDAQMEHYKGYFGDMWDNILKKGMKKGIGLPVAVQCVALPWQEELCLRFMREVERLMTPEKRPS
In short: (§1)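 Steps: inhibitor dilutions + proteome (1.0 mg/mL), 30 min, 37° C; add FP-Rh or HT-01 (50 μM DMSO stock), 30 min, 37° C; quench in SDS buffer; SDS-PAGE; gel imaging; band densitometry.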

PLA2G7 = target: T2, PLA2G7 (Mus musculus, UniProt Q60963); conditions: for inhibition at 1 µM: 1 μM inhibitor, read-out: % Inhibition at 1 μM, D = PLA2G7; for inhibition at 10 µM: 10 μM inhibitor, read-out: % Inhibition at 10 μM, D = PLA2G7; for IC50: mouse brain membrane fraction or cell lysates, 30 min preincubation at 37° C.
T2 construct: Proteomes (mouse brain membrane fraction or cell lysates); from tissue; host or cells: mouse brain membrane fraction (or cell lysates, not specified)
T2 sequence (Q60963 22-440): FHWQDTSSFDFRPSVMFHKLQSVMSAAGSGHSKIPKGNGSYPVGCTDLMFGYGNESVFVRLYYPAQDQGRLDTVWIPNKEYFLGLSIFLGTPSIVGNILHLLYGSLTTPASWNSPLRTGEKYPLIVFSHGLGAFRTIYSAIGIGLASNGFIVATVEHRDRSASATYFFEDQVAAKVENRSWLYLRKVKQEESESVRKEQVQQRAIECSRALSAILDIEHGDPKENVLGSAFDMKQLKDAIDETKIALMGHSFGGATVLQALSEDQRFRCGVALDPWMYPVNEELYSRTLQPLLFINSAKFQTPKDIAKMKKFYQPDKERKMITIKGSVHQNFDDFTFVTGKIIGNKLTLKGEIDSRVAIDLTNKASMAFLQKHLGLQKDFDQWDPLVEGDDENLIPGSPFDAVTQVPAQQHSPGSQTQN
In short: as §1

ABHD6 = target: T3, ABHD6 (Mus musculus, UniProt Q8R2Y0); conditions: for inhibition at 1 µM: 1 μM inhibitor, read-out: % Inhibition at 1 μM, C = ABHD6; for inhibition at 10 µM: 10 μM inhibitor, read-out: % Inhibition at 10 μM, C = ABHD6; for IC50: mouse brain membrane fraction or cell lysates, 30 min preincubation at 37° C., read-out: Mouse (IC50 value, nM) ABHD6
T3 construct: Proteomes (mouse brain membrane fraction or cell lysates); from tissue; host or cells: mouse brain membrane fraction (or cell lysates, not specified)
T3 sequence (Q8R2Y0 1-336): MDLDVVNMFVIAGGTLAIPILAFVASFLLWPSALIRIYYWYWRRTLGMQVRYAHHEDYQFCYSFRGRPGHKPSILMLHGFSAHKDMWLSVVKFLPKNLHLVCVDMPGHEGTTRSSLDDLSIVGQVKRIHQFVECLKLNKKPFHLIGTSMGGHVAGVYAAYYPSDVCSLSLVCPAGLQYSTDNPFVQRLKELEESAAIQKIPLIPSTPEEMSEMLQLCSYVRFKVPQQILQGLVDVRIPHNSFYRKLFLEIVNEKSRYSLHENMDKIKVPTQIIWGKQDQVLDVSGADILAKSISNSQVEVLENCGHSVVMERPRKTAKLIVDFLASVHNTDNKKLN
In short: as §1

MAGL = target: T4, MAGL (Mus musculus, UniProt O35678); conditions: for inhibition at 1 µM: 1 μM inhibitor; for inhibition at 10 µM: 10 μM inhibitor; for IC50: mouse brain membrane fraction or cell lysates, 30 min preincubation at 37° C., read-out: Mouse (IC50 value, nM) MAGL
T4 construct: Proteomes (mouse brain membrane fraction or cell lysates); from tissue; host or cells: mouse brain membrane fraction (or cell lysates, not specified)
T4 sequence (O35678 1-303): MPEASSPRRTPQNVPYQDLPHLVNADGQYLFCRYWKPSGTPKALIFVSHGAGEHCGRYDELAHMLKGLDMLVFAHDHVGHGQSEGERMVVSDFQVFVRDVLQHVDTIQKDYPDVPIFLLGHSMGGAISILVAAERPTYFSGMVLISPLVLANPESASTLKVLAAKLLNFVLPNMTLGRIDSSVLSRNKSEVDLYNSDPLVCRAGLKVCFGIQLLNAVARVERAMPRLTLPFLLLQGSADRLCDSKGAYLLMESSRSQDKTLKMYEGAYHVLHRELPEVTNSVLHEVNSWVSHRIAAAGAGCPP
In short: as §1

Row | inhibition at 1 µM (FAAH) [%] | inhibition at 10 µM (FAAH) [%] | inhibition at 1 µM (PLA2G7) [%] | inhibition at 10 µM (PLA2G7) [%] | inhibition at 1 µM (ABHD6) [%] | inhibition at 10 µM (ABHD6) [%] | IC50 (ABHD6) [nM] | inhibition at 1 µM (MAGL) [%] | inhibition at 10 µM (MAGL) [%] | inhibition at 1 µM (FAAH; gel-based competitive ABPP) [%] | inhibition at 1 µM (PLA2G7; gel-based competitive ABPP) [%] | inhibition at 1 µM (ABHD6; gel-based competitive ABPP) [%] | inhibition at 1 µM (MAGL; gel-based competitive ABPP) [%] | IC50 (FAAH) [nM] | IC50 (PLA2G7) [nM] | IC50 (MAGL) [nM] | Compound
1 | < 25 | < 25 | > 75 | > 75 | < 25 | 25 to 75 | – | < 25 | 25 to 75 | – | – | – | – | – | – | – | CC(=O)N1CCN(C(=O)n2cc(C#N)cn2)CC1 [Example 173, 1-(4-Acetylpiperazine-1-carbonyl)-1H-pyrazole-4-carbonitrile]
2 | – | – | – | – | – | – | – | – | – | < 25 | < 25 | < 25 | < 25 | – | – | – | CCN(Cc1cccc(N2CCOCC2)c1)C(=O)n1cc(C)cn1 [Example 262, N-Ethyl-4-methyl-N-(3-morpholinobenzyl)-1H-pyrazole-1-carboxamide]
3 | – | < 25 | – | < 25 | – | < 25 | – | – | < 25 | – | – | – | – | – | – | – | Cc1cnn(C(=O)N(C)CCN(C)C(=O)c2ccccc2)c1 [Example 172, N,4-Dimethyl-N-(2-(N-methylbenzamido)ethyl)-1H-pyrazole-1-carboxamide]
4 | – | – | – | – | – | – | 100 to 1000 | – | – | > 75 | < 25 | > 75 | > 75 | < 100 | > 1000 | 100 to 1000 | CCN(Cc1cccc(C)c1)C(=O)n1cc(C#N)cn1 [Example 246, 4-Cyano-N-ethyl-N-(3-methylbenzyl)-1H-pyrazole-1-carboxamide]
5 | < 25 | 25 to 75 | < 25 | > 75 | > 75 | > 75 | – | > 75 | > 75 | – | – | – | – | – | – | – | Cc1cnn(C(=O)N2CCN(Cc3ccc4ccccc4c3)CC2)c1 [Example 11, (4-Methyl-1H-pyrazol-1-yl)(4-(naphthalen-2-ylmethyl)piperazin-1-yl)methanone]
6 | < 25 | > 75 | < 25 | 25 to 75 | 25 to 75 | > 75 | – | 25 to 75 | > 75 | – | – | – | – | – | – | – | Cc1cnn(C(=O)N2CCN(Cc3ccc(OCc4ccccc4)cc3)CC2)c1 [Example 20, (4-(4-(Benzyloxy)benzyl)piperazin-1-yl)(4-methyl-1H-pyrazol-1-yl)methanone]

Second part, the compound before the results:

Row | Compound | inhibition at 1 µM (FAAH) [%] | inhibition at 10 µM (FAAH) [%] | inhibition at 1 µM (PLA2G7) [%] | inhibition at 10 µM (PLA2G7) [%] | inhibition at 1 µM (ABHD6) [%] | inhibition at 10 µM (ABHD6) [%] | IC50 (ABHD6) [nM] | inhibition at 1 µM (MAGL) [%] | inhibition at 10 µM (MAGL) [%] | inhibition at 1 µM (FAAH; gel-based competitive ABPP) [%] | inhibition at 1 µM (PLA2G7; gel-based competitive ABPP) [%] | inhibition at 1 µM (ABHD6; gel-based competitive ABPP) [%] | inhibition at 1 µM (MAGL; gel-based competitive ABPP) [%] | IC50 (FAAH) [nM] | IC50 (PLA2G7) [nM] | IC50 (MAGL) [nM]
7 | COc1ccccc1-c1ccc(-c2cnn(C(=O)N3CCCC3)c2)cc1 [Example 107, (4-(2′-Methoxy-[1,1′-biphenyl]-4-yl)-1H-pyrazol-1-yl)(pyrrolidin-1-yl)methanone] | < 25 | < 25 | < 25 | 25 to 75 | > 75 | > 75 | 100 to 1000 | < 25 | > 75 | – | – | – | – | – | – | –
8 | O=C(N1CCN(c2ccccc2N2CCOCC2)CC1)n1cc(C(F)(F)F)cn1 [Example 236, (4-(2-Morpholinophenyl)piperazin-1-yl)(4-(trifluoromethyl)-1H-pyrazol-1-yl)methanone] | 25 to 75 | > 75 | > 75 | > 75 | > 75 | > 75 | – | > 75 | > 75 | – | – | – | – | – | – | –
9 | O=C(N1CCN(Cc2ccccn2)CC1)n1cc(-c2ccccc2)cn1 [Example 61, (4-Phenyl-1H-pyrazol-1-yl)(4-(pyridin-2-ylmethyl)piperazin-1-yl)methanone] | – | > 75 | > 75 | > 75 | > 75 | > 75 | – | – | < 25 | – | – | – | – | – | – | –
10 | O=C(N1CCN(Cc2ccc3c(c2)OCO3)CC1)n1cc(-c2ccccc2)cn1 [Example 58, (4-(Benzo[d][1,3]dioxol-5-ylmethyl)piperazin-1-yl)(4-phenyl-1H-pyrazol-1-yl)methanone] | > 75 | > 75 | > 75 | > 75 | > 75 | > 75 | 100 to 1000 | < 25 | > 75 | – | – | – | – | – | – | –
11 | O=C(c1cnn(C(=O)N2CCN(Cc3ccncc3)CC2)c1)N1CCC1 [Example 87, Azetidin-1-yl(1-(4-(pyridin-4-ylmethyl)piperazine-1-carbonyl)-1H-pyrazol-4-yl)methanone] | < 25 | > 75 | < 25 | > 75 | < 25 | > 75 | – | < 25 | < 25 | – | – | – | – | – | – | –
12 | O=C(c1cnn(C(=O)N2CCN(Cc3ccc4c(c3)OCO4)CC2)c1)N1CCCCC1 [Example 69, (4-(Benzo[d][1,3]dioxol-5-ylmethyl)piperazin-1-yl)(4-(piperidine-1-carbonyl)-1H-pyrazol-1-yl)methanone] | > 75 | > 75 | > 75 | > 75 | > 75 | > 75 | – | 25 to 75 | > 75 | – | – | – | – | – | – | –
13 | O=C(N1CCN(Cc2cccc(Cl)c2)CC1)n1cc(C(F)(F)F)cn1 [Example 268, (4-(3-Chlorobenzyl)piperazin-1-yl)(4-(trifluoromethyl)-1H-pyrazol-1-yl)methanone] | – | – | – | – | – | – | < 100 | – | – | > 75 | > 75 | > 75 | > 75 | < 100 | 100 to 1000 | < 100
14 | O=C(c1cnn(C(=O)N2CCN(Cc3ccccn3)CC2)c1)N1CCOCC1 [Example 77, (4-(Morpholine-4-carbonyl)-1H-pyrazol-1-yl)(4-(pyridin-2-ylmethyl)piperazin-1-yl)methanone] | – | < 25 | < 25 | > 75 | < 25 | > 75 | – | – | < 25 | – | – | – | – | – | – | –
15 | O=C(N1CCN(Cc2cccc(Oc3ccccc3)c2)CC1)n1cc(Cl)cn1 [Example 216, (4-Chloro-1H-pyrazol-1-yl)(4-(3-phenoxybenzyl)piperazin-1-yl)methanone] | > 75 | – | < 25 | – | > 75 | – | < 100 | > 75 | – | – | – | – | – | < 100 | > 1000 | < 100
